The target in the test is T1, Japanin (Rhipicephalus appendiculatus, UniProt M1MR49).
T1 construct: polyhistidine-tagged recombinant secretory lipocalin, Sf9 baculovirus; 18 kDa; N-glycosylated at Asn35 and Asn131; homodimer; disulphides Cys28-Cys150, Cys114-Cys138; modelled residues 1-154
T1 sequence (M1MR49 25-176): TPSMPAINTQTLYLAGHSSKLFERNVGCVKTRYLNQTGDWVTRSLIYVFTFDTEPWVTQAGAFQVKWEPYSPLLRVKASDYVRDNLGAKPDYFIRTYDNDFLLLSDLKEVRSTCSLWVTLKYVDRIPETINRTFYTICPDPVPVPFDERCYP
The experiment in a line: X-ray crystallography ([…] and […] Å). Type of test: binding. The following applies: co-purified ligand, no cholesterol added; one per monomer in closed lipocalin barrel pocket; crystals pH 6.9-7.2 (4boe) and pH 4.5 (4bqu), 21 °C.

Experimental findings from publication PMC5700055, “Structural basis of cholesterol binding by a novel clade of dendritic cell modulators from ticks” (Scientific Reports, 2017) are described below.

The structures appear in SMILES notation.

For `CC(C)CCC[C@@H](C)[C@H]1CC[C@H]2[C@@H]3CC=C4C[C@@H](O)CC[C@]4(C)[C@H]3CC[C@]12C` [CLR, cholesterol], the “X-ray crystallography (2.2 and 2.4 Å)” value is listed as “each molecule in the crystals binds one molecule of cholesterol”.
